Assay results reported in patent US7375074B2, “Body weight gain inhibitor” (priority 2001, dated 2008).
No end group written: not given here. *: point of attachment. 125I = [125I]*

What was measured:
[1] = molecular target: T1, TGR26 (Rattus norvegicus, UniProt Q56UD9); test: Receptor binding using [125I-Tyr10]-hGPR8L(1-23) and membrane fraction of TGR26 expressing CHO cells; details: membrane fraction of TGR26 expressing CHO cells, 3 μg/ml
T1 construct: treated with restriction enzymes ClaI and SpeI, and the insert encoding TGR26 was excised; expressed in transfected cells; host or cells: CHO dhfr- cells, plasmid pAK-rGPR7; membrane fraction
T1 sequence (Q56UD9 1-329): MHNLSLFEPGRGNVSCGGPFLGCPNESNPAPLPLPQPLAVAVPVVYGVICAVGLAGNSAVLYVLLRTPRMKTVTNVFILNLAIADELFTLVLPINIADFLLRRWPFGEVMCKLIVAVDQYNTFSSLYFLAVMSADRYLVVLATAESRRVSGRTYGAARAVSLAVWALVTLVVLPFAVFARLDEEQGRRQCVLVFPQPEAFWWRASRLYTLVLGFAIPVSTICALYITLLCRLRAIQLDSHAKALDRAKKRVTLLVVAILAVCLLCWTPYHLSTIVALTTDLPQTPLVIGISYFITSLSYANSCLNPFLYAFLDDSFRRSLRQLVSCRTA
Method: Using [^125I-Tyr^10]-hGPR8L(1-23) prepared by the method described in Reference Example 42 and a cell membrane fraction prepared from TGR26 expressing cells as described in Example 6, a receptor binding assay was carried out as follows.
Cell membrane fraction prepared from TGR26 expressing cells was diluted to various concentration with assay buffer (25 mM Tris-HCl, 5 mM EDTA, 0.05% CHAPS (3-[(3-Cholamidopropyl) Dimethyl-Ammonio]-1-Propanesulfonate), 0.1% BSA, 0.5 mM PMSF, 1 μg/ml Pepstatin, 20 μg/ml Leupeptin, 4 μg/ml E-64, pH7.4), and 200 μl each of the diluent was dispensed into polypropilene test tube (Falcon 2053). In order to determine an amount of maximum binding, 2 μl of DMSO and 2 μl of 7 nM [^125I-Tyr^10]-hGPR8L(1-23) were added to the membrane fraction solution. […] After filtration, a radioactivity remaining on the filter was counted using γ-counter, and an amount of specific binding was estimated by subtracting an amount of non-specific binding from an amount of maximum binding. […]
A receptor binding activity of human- and porcine-homologue derivatives of GPR8 ligand peptide obtained in the reference examples was measured using a membrane fraction of TGR26 expressing CHO cells and [^125I-Tyr^10]-hGPR8L(1-23) by the method described in Reference Example 73. […]

[2] = molecular target: T2, human GPR8 (Homo sapiens, UniProt P48146); test: Receptor binding using [125I-Tyr10]-hGPR8L(1-23) and membrane fraction of GPR8 expressing CHO cells; details: membrane fraction of human GPR8 expressing cells
T2 construct: expressed in transfected cells; host or cells: CHO dhfr- cells, plasmid pAKKO-GPR8; membrane fraction
T2 sequence (P48146 whole entry): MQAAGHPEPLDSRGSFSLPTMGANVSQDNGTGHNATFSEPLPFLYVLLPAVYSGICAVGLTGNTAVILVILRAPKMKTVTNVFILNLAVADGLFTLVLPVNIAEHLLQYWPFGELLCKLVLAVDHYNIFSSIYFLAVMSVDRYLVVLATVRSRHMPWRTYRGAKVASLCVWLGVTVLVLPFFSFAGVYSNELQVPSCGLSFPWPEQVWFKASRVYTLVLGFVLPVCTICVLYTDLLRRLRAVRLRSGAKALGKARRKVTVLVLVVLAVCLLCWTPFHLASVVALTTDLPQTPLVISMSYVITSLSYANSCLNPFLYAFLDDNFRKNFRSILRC

Row | IC50 [1] [nM] | specific binding compared with [125I-Tyr2]-hGPR8L(1-23) [2] | Molecule
1 | 0.12 |  | CSCC[C@H](NC(=O)[C@H](CC(C)C)NC(=O)[C@H](CC(C)C)NC(=O)CNC(=O)[C@H](C)NC(=O)[C@H](C)NC(=O)[C@H](CCCNC(=N)N)NC(=O)CNC(=O)[C@@H](NC(=O)[C@@H](NC(=O)[C@H](Cc1c[nH]cn1)NC(=O)[C@H](Cc1ccc(O)cc1)NC(=O)[C@H](CCCNC(=N)N)NC(=O)[C@@H]1CCCN1C(=O)[C@H](CO)NC(=O)[C@H](C)NC(=O)[C@@H](NC(=O)[C@H](Cc1c[nH]cn1)NC(=O)[C@H](CCCCN)NC(=O)[C@H](Cc1ccc(O)cc1)NC(=O)[C@@H](N)Cc1c[nH]c2ccccc12)[C@@H](C)O)[C@@H](C)O)C(C)C)C(=O)NCC(=O)N[C@@H](CC(C)C)C(=O)O [pGPR8L(1-23)]
2 |  | twice as much | [^125I-Tyr^10]-hGPR8L(1-23): hGPR8L(1-23) iodinated with 125I at Tyr10 by the lactoperoxidase method; radioligand (WYKHVASPRY(125I)HTVGRAAGLLMGL)
